Literature values in PMC7395068, “The evolution of strategies to minimise the risk of human drug-induced liver injury (DILI) in drug discovery and development” (Archives of Toxicology, 2020).
Read-outs that look alike come from different tables or passages of the source.

How the values were obtained:
rBsep = system: rBsep; set-up: method as in Dawson 2012; conditions: In vitro Assay; ref Dawson 2012; cited from earlier work
[1] = cited from earlier work
[2] = system: THLE-Null and THLE-3A4 cells; conditions: In vitro Assay; ref Gustafsson 2014; cited from earlier work
[3] = system: HepG2 cells, primary human hepatocytes; conditions: In vitro Assay; ref Garside 2014; cited from earlier work
[4] = system: isolated mouse liver mitochondria; conditions: In vitro Assay; ref Porceddu 2012; cited from earlier work
[5] = ref Chen 2016; cited from earlier work

Row | SMILES | Inhibition of rBsep cutoff<1& cmax u>.2 (rBsep) | Inhibition of rBsep cutoff<3 (rBsep) | In vivo DILI ([1]; ref Dawson 2012) | In vivo DILI ([1]; ref Garside 2014) | In vivo DILI ([1]; ref Gustafsson 2014) | THLE-Null [2] | THLE-Null/3A4 [2] | Cluster 1-6 +VE Assay [3] | In vivo DILI ([1]; ref Porceddu 2012) | in vitro data EC2<=1x Cmax [4] | in vitro data EC20<=2uM [4] | DILI +VE (5-8), DILI -VE (-4) [5] | DILI severity category [5]
1 | CCC(=O)O[C@]1(C(=O)CCl)[C@@H](C)C[C@H]2[C@@H]3CCC4=CC(=O)C=C[C@]4(C)[C@@]3(F)[C@@H](O)C[C@@]21C [clobetasol propionate] | -VE | +VE | -VE | -VE | -VE | -VE | -VE | -VE | – | – | – | – | –
2 | CC(C)(S)[C@@H](N)C(=O)O [d-penicillamine] | -VE | -VE | +VE | – | +VE | -VE | -VE | – | +VE | +VE | -VE | – | –
3 | Cc1onc(-c2c(Cl)cccc2Cl)c1C(=O)N[C@@H]1C(=O)N2[C@@H]1SC(C)(C)[C@@H]2C(=O)O [dicloxacillin] | -VE | +VE | +VE | +VE | +VE | -VE | -VE | +VE | – | – | – | +VE | vLess-DILI-Concern
4 | COc1ccc(Cl)cc1C(=O)NCCc1ccc(S(=O)(=O)NC(=O)NC2CCCCC2)cc1 [glibenclamide] | +VE | +VE | – | – | – | – | – | +VE | – | – | – | – | –
